IC50 data for 32 compounds are collected here from patent US9303016B2, “Derivatives of aza adamantane and uses thereof” (CONNEXIOS LIFE SCIENCES PVT. LTD., priority 2011, dated 2016).

pIC50: −log10 of the molar value.

For the assay, the target named is T1, human full length HSD11β1 (Homo sapiens, UniProt P28845).
T1 construct: transient expression of human full length HSD11β1 expression vector; host or cells: CHO cells, transient transfection
T1 sequence (P28845 whole entry): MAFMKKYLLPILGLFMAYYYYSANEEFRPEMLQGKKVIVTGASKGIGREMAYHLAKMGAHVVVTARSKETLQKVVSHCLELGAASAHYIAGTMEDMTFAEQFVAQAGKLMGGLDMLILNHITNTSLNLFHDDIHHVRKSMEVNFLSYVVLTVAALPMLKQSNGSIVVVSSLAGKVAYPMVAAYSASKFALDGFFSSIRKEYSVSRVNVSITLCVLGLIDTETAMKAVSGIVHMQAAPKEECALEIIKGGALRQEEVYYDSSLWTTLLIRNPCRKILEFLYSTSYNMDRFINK
Description: In Vitro HSD11β1 Inhibition Assay. The class given is cell-based. Particulars: CHO cells transiently expressing human HSD11β1; 200 nM cortisone+500 uM NADPH overnight; cortisone to cortisol by LC/MS-MS; read-out: 11βHSD1 (IC50). As to the method: In Vitro HSD11β1 Inhibition Assay:
CHO cells were maintained in Dulbecco's modified Eagle's medium/nutrient mixture F-12 containing 5% fetal bovine serum (v/v) and 2 mM glutamine. Cells were cultured at 37° C. with 5% CO2. For transient expression of human full length HSD11β1 expression vector (OriGene Technologies), cells were seeded at a density of 2×10^5 cells/well in a 6-well plate. Transfection was done using Turbofectin8 reagent (OriGene Technologies), according to the protocol provided with the reagent. After 24 hours post-transfection, cells were trypsinized and pooled together before they were re-seeding to 96-well plate at a density of 40000 cells/well. 24 hours after re-seeding, cells were incubated with 200 nM cortisone+500 uM NADPH (or along with small molecule inhibitors) overnight. The enzymatic activity or inhibition of enzyme activity was measured by estimating the conversion of cortisone to cortisol by LC/MS-MS method. The IC50 in nM was calculated from a 8 point log scale of concentration versus inhibition.
In the case of `CC(CC(=O)N1C2CC3CC1CC(CC(=O)O)(C3)C2)c1c[nH]c2cccc(Cl)c12` (centres unmarked) [Compound 145, {2-[3-(4-chloro-1H-indol-3-yl)butanoyl]-2-azatricyclo[3.3.1.1^3,7]dec-5-yl}acetic acid], the pIC50 was 6.82 to 7.00. Consider `CC(CC(=O)N1C2CC3CC1CC(O)(C3)C2)c1c[nH]c2ccc(F)cc12` (centres unmarked) [Compound 75, 3-(5-fluoro-1H-indol-3-yl)-1-(5-hydroxy-2-azatricyclo[3.3.1.1^3,7]dec-2-yl)butan-1-one], for which the pIC50 was 6.60 to 6.70.

Regarding `CC(CC(=O)N1C2CC3CC1CC(O)(C3)C2)c1nc2ccc(Cl)cc2s1` (centres unmarked) [Compound 192, 3-(6-chloro-1,3-benzothiazol-2-yl)-1-(5-hydroxy-2-azatricyclo[3.3.1.1^3,7]dec-2-yl)butan-1-one], the pIC50 was over 7.00. Under `Cc1c(F)ccc2[nH]cc(C(C)CC(=O)N3C4CC5CC3CC(O)(C5)C4)c12` (single isomer, unassigned) [Compound 147, 3-(5-fluoro-4-methyl-1H-indol-3-yl)-1-(5-hydroxy-2-azatricyclo[3.3.1.1^3,7]dec-2-yl)butan-1-one] stands 6.82 to 7.00; under `CC(CC(=O)N1C2CC3CC1CC(O)(C3)C2)c1c[nH]c2cc(F)ccc12` (centres unmarked) [Compound 79, 3-(6-fluoro-1H-indol-3-yl)-1-(5-hydroxy-2-azatricyclo[3.3.1.1^3,7]dec-2-yl)butan-1-one], 6.82 to 7.00; under `CC(CC(=O)N1C2CC3CC1CC(C#N)(C3)C2)c1nc2cc(Cl)ccc2s1` (centres unmarked) [Compound 191, 2-[3-(5-chloro-1,3-benzothiazol-2-yl)butanoyl]-2-azatricyclo[3.3.1.1^3,7]decane-5-carbonitrile], under 6.60. Under `CC(CC(=O)N1C2CC3CC1CC(O)(C3)C2)c1cn(C)c2cccc(Cl)c12` (centres unmarked) [Compound 207, 3-(4-chloro-1-methyl-1H-indol-3-yl)-1-(5-hydroxy-2-azatricyclo[3.3.1.1^3,7]dec-2-yl)butan-1-one] stands 6.82 to 7.00. For the compound `O=C(CCc1c[nH]c2ncccc12)N1C2CC3CC1CC(O)(C3)C2` [Example 15, 1-(5-hydroxy-2-azatricyclo[3.3.1.1^3,7]dec-2-yl)-3-(1H-pyrrolo[2,3-b]pyridin-3-yl)propan-1-one], the pIC50 is under 6.60.

`CC(CC(=O)N1C2CC3CC1CC(O)(C3)C2)c1c[nH]c2ncc(C3CC3)c(C3CC3)c12` (centres unmarked) [Compound 201, 3-(4,5-dicyclopropyl-1H-pyrrolo[2,3-b]pyridin-3-yl)-1-(5-hydroxy-2-azatricyclo[3.3.1.1^3,7]dec-2-yl)butan-1-one]: the pIC50 is under 6.60. The same measure for `CC(CC(=O)N1C2CC3CC1CC(O)(C3)C2)c1c[nH]c2ncc(Cl)c(C3CC3)c12` (single isomer, unassigned) [Compound 200, 3-(5-chloro-4-cyclopropyl-1H-pyrrolo[2,3-b]pyridin-3-yl)-1-(5-hydroxy-2-azatricyclo[3.3.1.1^3,7]dec-2-yl)butan-1-one]: under 6.60; for `CC(CC(=O)N1C2CC3CC1CC(c1nnn[nH]1)(C3)C2)c1c[nH]c2cccc(C3CC3)c12` (centres unmarked) [Compound 149, 3-(4-cyclopropyl-1H-indol-3-yl)-1-[5 (1H-tetrazol-5-yl)-2-azatricyclo[3.3.1.1^3,7]dec-2-yl]butan-1-one]: under 6.60. Take `Cc1ccc2[nH]cc(C(C)CC(=O)N3C4CC5CC3CC(O)(C5)C4)c2c1C` (single isomer, unassigned) [Compound 169, 3-(4,5-dimethyl-1H-indol-3-yl)-1-(5-hydroxy-2-azatricyclo[3.3.1.1^3,7]dec-2-yl)butan-1-one]: the negative-log IC50 (pIC50) is over 7.00. The same measure for `CC(CC(=O)N1C2CC3CC1CC(O)(C3)C2)c1c[nH]c2ccc(Cl)c(Cl)c12` (centres unmarked) [Compound 168, 3-(4,5-dichloro-1H-indol-3-yl)-1-(5-hydroxy-2-azatricyclo[3.3.1.1^3,7]dec-2-yl)butan-1-one]: over 7.00. Under `Cc1cccc2c1nnn2C(CC(=O)N1C2CC3CC1CC(O)(C3)C2)C(C)C` (centres unmarked) [Compound 131, 1-(5-hydroxy-2-azatricyclo[3.3.1.1^3,7]dec-2-yl)-4-methyl-3-(4-methyl-1H-benzotriazol-1-yl)pentan-1-one] stands under 6.60. The same measure for `Cc1ccc2[nH]cc(C(C)CC(=O)N3C4CC5CC3CC(O)(C5)C4)c2c1Cl` (single isomer, unassigned) [Compound 175, 3-(4-chloro-5-methyl-1H-indol-3-yl)-1-(5-hydroxy-2-azatricyclo[3.3.1.1^3,7]dec-2-yl)butan-1-one]: over 7.00; for `CC(CC(=O)N1C2CC3CC1CC(O)(C3)C2)c1cn(S(C)(=O)=O)c2cccc(Cl)c12` (centres unmarked) [Example 46, 3-[4-chloro-1-(methylsulfonyl)-1H-indol-3-yl]-1-(5-hydroxy-2-azatricyclo[3.3.1.1^3,7]dec-2-yl)butan-1-one]: under 6.60. `O=C(CC(c1ccc(F)cc1F)c1c[nH]c2ccccc12)N1C2CC3CC1CC(O)(C3)C2` (centres unmarked) [Compound 96, 3-(2,4-difluorophenyl)-1-(5-hydroxy-2-azatricyclo[3.3.1.1^3,7]dec-2-yl)-3-(1H-indol-3-yl)propan-1-one]: the pIC50 was 6.82 to 7.00.

As to `CC(CC(=O)N1C2CC3(O)CC1CC(F)(C2)C3)c1c[nH]c2cccc(C3CC3)c12` (centres unmarked) [Compound 213, 3-(4-cyclopropyl-1H-indol-3-yl)-1-(5-fluoro-7-hydroxy-2-azatricyclo[3.3.1.1^3,7]dec-2-yl)butan-1-one], the pIC50 was 6.82 to 7.00. The same measure for `Cc1ccc2[nH]cc(C(C)CC(=O)N3C4CC5CC3CC(O)(C5)C4)c2c1C` (centres unmarked) [Compound 164, 3-(4,5-dimethyl-1H-indol-3-yl)-1-(5-hydroxy-2-azatricyclo[3.3.1.1^3,7]dec-2-yl)butan-1-one]: 6.82 to 7.00; for `COc1ccc2[nH]cc(C(C)CC(=O)N3C4CC5CC3CC(C)(C5)C4)c2c1` (centres unmarked) [Compound 227, 3-(5-methoxy-1H-indol-3-yl)-1-(5-methyl-2-azaadamantan-2-yl)butan-1-one]: over 7.00. For the compound `Cc1ccc2c(c1Cl)C(C(C)CC(=O)N1C3CC4CC1CC(O)(C4)C3)C(=O)N2` (centres unmarked) [Compound 211, 4-chloro-3-[4-(5-hydroxy-2-azatricyclo[3.3.1.1^3,7]dec-2-yl)-4-oxobutan-2-yl]-5-methyl-1,3-dihydro-2H-indol-2-one], the pIC50 is 6.70 to 6.82. In the case of `O=C(CC(c1ccccc1)c1c[nH]c2cc(F)ccc12)N1C2CC3CC1CC(O)(C3)C2` (centres unmarked) [Compound 94, 3-(6-fluoro-1H-indol-3-yl)-1-(5-hydroxy-2-azatricyclo[3.3.1.1^3,7]dec-2-yl)-3-phenylpropan-1-one], the pIC50 is over 7.00. The same measure for `CC(CC(=O)N1C2CC3CC1CC(C(=O)O)(C3)C2)c1c[nH]c2cccc(C3CC3)c12` (centres unmarked) [Example 51, 2-[3-(4-cyclopropyl-1H-indol-3-yl)butanoyl]-2-azatricyclo[3.3.1.1^3,7]decane-5-carboxylic acid]: under 6.60. Under `CC(CC(=O)N1C2CC3CC1CC(O)(C3)C2)c1c[nH]c2cc(Cl)c(C3CC3)cc12` (centres unmarked) [Compound 138, 3-(6-chloro-5-cyclopropyl-1H-indol-3-yl)-1-(5-hydroxy-2-azatricyclo[3.3.1.1^3,7]dec-2-yl)butan-1-one] stands 6.82 to 7.00. The same measure for `CC(CC(=O)N1C2CC3CC1CC(O)(C3)C2)c1c[nH]c2ccc(Cl)cc12` (centres unmarked) [Example 68, 3-(5-chloro-1H-indol-3-yl)-1-(5-hydroxy-2-azatricyclo[3.3.1.1^3,7]dec-2-yl)butan-1-one]: under 6.60. As to `CC(CC(=O)N1C2CC3CC1CC(O)(C3)C2)c1c[nH]c2cc(F)ccc12` (single isomer, unassigned) [Compound 98, 3-(6-fluoro-1H-indol-3-yl)-1-(5-hydroxy-2-azatricyclo[3.3.1.1^3,7]dec-2-yl)butan-1-one], the pIC50 is over 7.00. Take `CC(CC(=O)N1C2CC3CC(C2)CC1C3)c1c[nH]c2ncccc12` (centres unmarked) [Compound 85]: the pIC50 is over 7.00. Consider `Cc1ccc2[nH]cc(C(C)CC(=O)N3C4CC5CC3CC(O)(C5)C4)c2c1` (centres unmarked) [Compound 110, 1-(5-hydroxy-2-azatricyclo[3.3.1.1^3,7]dec-2-yl)-3-(5-methyl-1H-indol-3-yl)butan-1-one], for which the pIC50 was under 6.60.

`CC(CC(=O)N1C2CC3CC1CC(c1nnn[nH]1)(C3)C2)c1c[nH]c2cccc(Cl)c12` (centres unmarked) [Compound 76, 3-(4-chloro-1H-indol-3-yl)-1-[5-(1H-tetrazol-5-yl)-2-azatricyclo[3.3.1.1^3,7]dec-2-yl]butan-1-one]: the pIC50 is under 6.60. Under `O=C(CC(c1ccc(F)cc1)c1c[nH]c2cccc(F)c12)N1C2CC3CC1CC(O)(C3)C2` (centres unmarked) [Compound 99, 3-(4-fluoro-1H-indol-3-yl)-3-(4-fluorophenyl)-1-(5-hydroxy-2-azatricyclo[3.3.1.1^3,7]dec-2-yl)propan-1-one] stands over 7.00; under `CC(CC(=O)N1C2CC3CC1CC(CC(=O)O)(C3)C2)c1c[nH]c2cccc(C3CC3)c12` (centres unmarked) [Compound 152, {2-[3-(4-cyclopropyl-1H-indol-3-yl)butanoyl]-2-azatricyclo[3.3.1.1^3,7]dec-5-yl}acetic acid], 6.82 to 7.00. Turning to `COc1cc2c(C(C)CC(=O)N3C4CC5CC3CC(O)(C5)C4)c[nH]c2cc1Cl` (single isomer, unassigned) [Compound 130, 3-(6-chloro-5-methoxy-1H-indol-3-yl)-1-(5-hydroxy-2-azatricyclo[3.3.1.1^3,7]dec-2-yl)butan-1-one], the pIC50 is over 7.00.

As a reminder, the pIC50 is the negative decadic logarithm of the IC50, by convention in mol/L.
